Measured values published in the NIST ThermoML archive (doi:10.1016/j.jct.2017.12.012).
Numbers after ± are expanded uncertainties.

Tests used:
[1] = 101.33 kPa, Liquid, Vibrating tube method
[2] = activity coefficient (dimensionless); of the first substance listed, at infinite dilution; xn = mol fraction of the nth substance listed; conditions: 101.33 kPa, Liquid, Chromatography, x1 = 0

Structure (SMILES)	mass density ([1]; 313.15 K) [kg/m3]	mass density ([1]; 323.15 K) [kg/m3]	mass density ([1]; 333.15 K) [kg/m3]	mass density ([1]; 343.15 K) [kg/m3]	mass density ([1]; 353.15 K) [kg/m3]	activity coefficient ([2]; 313.15 K)	activity coefficient ([2]; 323.15 K)	activity coefficient ([2]; 333.15 K)	activity coefficient ([2]; 343.15 K)	activity coefficient ([2]; 353.15 K)
CCCCCCCCn1cc[n+](C)c1C.O=S(=O)([N-]S(=O)(=O)C(F)(F)F)C(F)(F)F	1296.1 ± 2.4	1287.4 ± 2.4	1278.6 ± 2.4	1269.1 ± 2.4	1258.2 ± 2.4					
Cc1ccccc1C [1,2-dimethylbenzene] + CCCCCCCCn1cc[n+](C)c1C.O=S(=O)([N-]S(=O)(=O)C(F)(F)F)C(F)(F)F						1.15 ± 0.12	1.08 ± 0.11	1.02 ± 0.1	0.96 ± 0.1	0.93 ± 0.09
Cc1cccc(C)c1 [1,3-dimethylbenzene] + CCCCCCCCn1cc[n+](C)c1C.O=S(=O)([N-]S(=O)(=O)C(F)(F)F)C(F)(F)F						1.18 ± 0.12	1.14 ± 0.12	1.1 ± 0.11	1.04 ± 0.11	1.01 ± 0.1
Cc1ccc(C)cc1 [1,4-dimethylbenzene] + CCCCCCCCn1cc[n+](C)c1C.O=S(=O)([N-]S(=O)(=O)C(F)(F)F)C(F)(F)F						1.17 ± 0.12	1.11 ± 0.11	1.06 ± 0.11	1 ± 0.1	0.95 ± 0.1
C1COCCO1 [1,4-dioxane] + CCCCCCCCn1cc[n+](C)c1C.O=S(=O)([N-]S(=O)(=O)C(F)(F)F)C(F)(F)F						0.64 ± 0.07	0.56 ± 0.06	0.51 ± 0.06	0.47 ± 0.05	0.42 ± 0.05
CC(C)CO [2-methyl-1-propanol] + CCCCCCCCn1cc[n+](C)c1C.O=S(=O)([N-]S(=O)(=O)C(F)(F)F)C(F)(F)F						2.21 ± 0.23	1.88 ± 0.2	1.6 ± 0.17	1.39 ± 0.14	1.21 ± 0.12
CC(C)CCO [3-methylbutan-1-ol] + CCCCCCCCn1cc[n+](C)c1C.O=S(=O)([N-]S(=O)(=O)C(F)(F)F)C(F)(F)F						2.46 ± 0.26	2.11 ± 0.22	1.79 ± 0.19	1.55 ± 0.16	1.32 ± 0.14
CC(C)=O [acetone] + CCCCCCCCn1cc[n+](C)c1C.O=S(=O)([N-]S(=O)(=O)C(F)(F)F)C(F)(F)F						0.46 ± 0.05	0.41 ± 0.05	0.37 ± 0.04	0.34 ± 0.04	0.31 ± 0.04
CC#N [acetonitrile] + CCCCCCCCn1cc[n+](C)c1C.O=S(=O)([N-]S(=O)(=O)C(F)(F)F)C(F)(F)F						0.51 ± 0.06	0.45 ± 0.05	0.4 ± 0.05	0.37 ± 0.04	0.34 ± 0.04
c1ccccc1 [benzene] + CCCCCCCCn1cc[n+](C)c1C.O=S(=O)([N-]S(=O)(=O)C(F)(F)F)C(F)(F)F						0.81 ± 0.08	0.74 ± 0.08	0.68 ± 0.07	0.63 ± 0.07	0.59 ± 0.06
CCCCO [butan-1-ol] + CCCCCCCCn1cc[n+](C)c1C.O=S(=O)([N-]S(=O)(=O)C(F)(F)F)C(F)(F)F						2.31 ± 0.24	1.96 ± 0.21	1.7 ± 0.18	1.46 ± 0.15	1.27 ± 0.13
CCC(C)O (stereo not given) [butan-2-ol] + CCCCCCCCn1cc[n+](C)c1C.O=S(=O)([N-]S(=O)(=O)C(F)(F)F)C(F)(F)F						2.03 ± 0.21	1.74 ± 0.18	1.5 ± 0.16	1.29 ± 0.13	1.11 ± 0.11
C1CCCCC1 [cyclohexane] + CCCCCCCCn1cc[n+](C)c1C.O=S(=O)([N-]S(=O)(=O)C(F)(F)F)C(F)(F)F						4.76 ± 0.5	4.16 ± 0.44	3.75 ± 0.39	3.37 ± 0.35	3.12 ± 0.33
C1=CCCCC1 [cyclohexene] + CCCCCCCCn1cc[n+](C)c1C.O=S(=O)([N-]S(=O)(=O)C(F)(F)F)C(F)(F)F						3.04 ± 0.32	2.77 ± 0.29	2.5 ± 0.26	2.28 ± 0.24	2.1 ± 0.22
CCCCCCCCCC [decane] + CCCCCCCCn1cc[n+](C)c1C.O=S(=O)([N-]S(=O)(=O)C(F)(F)F)C(F)(F)F						20.8 ± 2.2	16.4 ± 1.7	13.5 ± 1.4	11.2 ± 1.2	9.33 ± 0.98
ClCCl [dichloromethane] + CCCCCCCCn1cc[n+](C)c1C.O=S(=O)([N-]S(=O)(=O)C(F)(F)F)C(F)(F)F						0.82 ± 0.08	0.75 ± 0.08	0.68 ± 0.07	0.64 ± 0.07	0.58 ± 0.06
CCO [ethanol] + CCCCCCCCn1cc[n+](C)c1C.O=S(=O)([N-]S(=O)(=O)C(F)(F)F)C(F)(F)F						1.7 ± 0.18	1.49 ± 0.15	1.31 ± 0.13	1.15 ± 0.12	1.01 ± 0.1

Structure (SMILES)	mass density ([1]; 313.15 K) [kg/m3]	mass density ([1]; 323.15 K) [kg/m3]	mass density ([1]; 333.15 K) [kg/m3]	mass density ([1]; 343.15 K) [kg/m3]	mass density ([1]; 353.15 K) [kg/m3]	activity coefficient ([2]; 313.15 K)	activity coefficient ([2]; 323.15 K)	activity coefficient ([2]; 333.15 K)	activity coefficient ([2]; 343.15 K)	activity coefficient ([2]; 353.15 K)
CCOC(C)=O [ethyl acetate] + CCCCCCCCn1cc[n+](C)c1C.O=S(=O)([N-]S(=O)(=O)C(F)(F)F)C(F)(F)F						0.74 ± 0.08	0.67 ± 0.07	0.61 ± 0.07	0.57 ± 0.06	0.52 ± 0.06
CCc1ccccc1 [ethylbenzene] + CCCCCCCCn1cc[n+](C)c1C.O=S(=O)([N-]S(=O)(=O)C(F)(F)F)C(F)(F)F						1.37 ± 0.14	1.29 ± 0.13	1.2 ± 0.12	1.14 ± 0.12	1.08 ± 0.11
CCCCCCC [heptane] + CCCCCCCCn1cc[n+](C)c1C.O=S(=O)([N-]S(=O)(=O)C(F)(F)F)C(F)(F)F						8.82 ± 0.93	7.77 ± 0.82	6.89 ± 0.72	6.29 ± 0.66	5.69 ± 0.6
C=CCCCC [hex-1-ene] + CCCCCCCCn1cc[n+](C)c1C.O=S(=O)([N-]S(=O)(=O)C(F)(F)F)C(F)(F)F						4.99 ± 0.52	4.26 ± 0.45	3.65 ± 0.38	3.18 ± 0.33	2.81 ± 0.3
CCCCCC [hexane] + CCCCCCCCn1cc[n+](C)c1C.O=S(=O)([N-]S(=O)(=O)C(F)(F)F)C(F)(F)F						7.89 ± 0.83	6.52 ± 0.69	5.57 ± 0.59	4.87 ± 0.51	4.22 ± 0.44
CO [methanol] + CCCCCCCCn1cc[n+](C)c1C.O=S(=O)([N-]S(=O)(=O)C(F)(F)F)C(F)(F)F						1.37 ± 0.14	1.26 ± 0.13	1.14 ± 0.12	1.05 ± 0.11	0.96 ± 0.1
CC1CCCCC1 [methylcyclohexane] + CCCCCCCCn1cc[n+](C)c1C.O=S(=O)([N-]S(=O)(=O)C(F)(F)F)C(F)(F)F						5.67 ± 0.6	4.88 ± 0.51	4.25 ± 0.45	3.79 ± 0.4	3.32 ± 0.35
CCCCCCCCC [nonane] + CCCCCCCCn1cc[n+](C)c1C.O=S(=O)([N-]S(=O)(=O)C(F)(F)F)C(F)(F)F						14.4 ± 1.5	12.1 ± 1.3	10.4 ± 1.1	9.04 ± 0.95	8.04 ± 0.85
CCCCCCCC [octane] + CCCCCCCCn1cc[n+](C)c1C.O=S(=O)([N-]S(=O)(=O)C(F)(F)F)C(F)(F)F						11.1 ± 1.2	9.5 ± 1	8.12 ± 0.85	7.17 ± 0.75	6.32 ± 0.66
CCCCCO [pentan-1-ol] + CCCCCCCCn1cc[n+](C)c1C.O=S(=O)([N-]S(=O)(=O)C(F)(F)F)C(F)(F)F						2.61 ± 0.27	2.22 ± 0.23	1.92 ± 0.2	1.62 ± 0.17	1.41 ± 0.15
CCCCC [pentane] + CCCCCCCCn1cc[n+](C)c1C.O=S(=O)([N-]S(=O)(=O)C(F)(F)F)C(F)(F)F						6.78 ± 0.71	5.63 ± 0.59	4.81 ± 0.51	4.24 ± 0.45	3.66 ± 0.38
CCCO [propan-1-ol] + CCCCCCCCn1cc[n+](C)c1C.O=S(=O)([N-]S(=O)(=O)C(F)(F)F)C(F)(F)F						1.94 ± 0.2	1.67 ± 0.17	1.42 ± 0.15	1.22 ± 0.13	1.05 ± 0.11
CC(C)O [propan-2-ol] + CCCCCCCCn1cc[n+](C)c1C.O=S(=O)([N-]S(=O)(=O)C(F)(F)F)C(F)(F)F						2.13 ± 0.22	1.82 ± 0.19	1.56 ± 0.16	1.34 ± 0.14	1.17 ± 0.12
ClC(Cl)(Cl)Cl [tetrachloromethane] + CCCCCCCCn1cc[n+](C)c1C.O=S(=O)([N-]S(=O)(=O)C(F)(F)F)C(F)(F)F						1.77 ± 0.18	1.67 ± 0.17	1.57 ± 0.16	1.46 ± 0.15	1.39 ± 0.14
C1CCOC1 [tetrahydrofuran] + CCCCCCCCn1cc[n+](C)c1C.O=S(=O)([N-]S(=O)(=O)C(F)(F)F)C(F)(F)F						0.54 ± 0.06	0.48 ± 0.05	0.44 ± 0.05	0.4 ± 0.05	0.37 ± 0.04
Cc1ccccc1 [toluene] + CCCCCCCCn1cc[n+](C)c1C.O=S(=O)([N-]S(=O)(=O)C(F)(F)F)C(F)(F)F						1.03 ± 0.1	0.94 ± 0.1	0.87 ± 0.09	0.82 ± 0.08	0.78 ± 0.08
ClC(Cl)Cl [trichloromethane] + CCCCCCCCn1cc[n+](C)c1C.O=S(=O)([N-]S(=O)(=O)C(F)(F)F)C(F)(F)F						0.77 ± 0.08	0.7 ± 0.07	0.65 ± 0.07	0.6 ± 0.06	0.54 ± 0.06
